{"source": "paper PMC9146984", "about": "“A Novel Proline-Rich Cathelicidin from the Alpaca Vicugna pacos with Potency to Combat Antibiotic-Resistant Bacteria: Mechanism of Action and the Functional Role of the C-Terminal Region” (Membranes, 2022)", "key": {"[1]": {"tested_on": "E. coli BL21 (DE3) Star cell extract, coupled transcription/translation of EGFP", "assay": "In vitro transcription/translation inhibition assay (cell-free EGFP synthesis)", "type": "biochemical, Escherichia coli", "conditions": "EGFP fluorescence, 2 h, 30 °C; at least two independent experiments in triplicate; read-out: IC50, inhibition of in vitro protein synthesis in the E. coli cell-free system", "procedure": "To investigate the effect of cathelicidins on the coupled transcription/translation process, the peptides were added to a cell-free protein synthesis (CFPS) reaction mix with a plasmid encoding enhanced green fluorescent protein (EGFP) variant (F64L, S65T, Q80R, F99S, M153T, and V163A) under control of the T7 promoter as described previously with some modifications. Briefly, the peptides were dissolved in 0.1% BSA in water. Bac7[1–22] was used as a positive control inhibitor. The fluorescence of the sample without inhibitor was set as the 100% value. The reaction proceeded for 2 h in 96-well v-bottom black polystyrene microplates in a plate shaker (30 °C, 1000 rpm). The fluorescence of the synthesized EGFP was measured with the microplate reader AF2200 (λExc = 488 nm, λEm = 510 nm; Eppendorf, Hamburg, Germany). The experimental data were obtained from at least two independent experiments performed in triplicate. Non-linear regression curves were generated using GraphPad Prism v.8.0.1 (GraphPad Software Inc., San Diego, CA, USA)."}, "[2]": {"tested_on": "human cells", "assay": "Cytokine response (multiplex xMAP immunoassay), cell type not given", "type": "cell-based", "conditions": "2 µM peptide, 24 h, control 1813 pg/mL", "procedure": "Acute monocytic leukemia THP-1 line (ATCC TIB-202) was cultured in complete RPMI 1640 medium (Invitrogen, Waltham, MA, USA) containing 10% FBS, 1× antibiotic-antimycotic solution (Invitrogen, Waltham, MA, USA), and 0.05 mM β-mercaptoethanol, in the CO2-incubator (5% CO2, 37 °C). THP-1 cells were differentiated into proinflammatory macrophages (MΦ1) according to the previously reported protocol. Primary peripheral blood mononuclear cells (PBMC) collected from a healthy donor were purchased from American Type Culture Collection (ATCC PCS-800-011), thawed, and seeded into a 96-well plate one day prior to the experiment at a density of 2 × 10^5 cells/well. […] 27 analytes were measured at a protein level by multiplex xMAP technology using the MILLIPLEX MAP Human Cytokine/Chemokine Magnetic Bead Immunology Panel kit (HCYTOMAG-60K-27, Merck, Darmstadt, Germany): eotaxin-1/CCL11, TGFα, GM-CSF, IFNα2, IFNγ, IL-10, IL-12p40, IL-12p70, IL-13, IL-15, sCD40L, IL-17A, IL-1RA, IL-1α, IL-9, IL-1β, IL-2, IL-3, IL-4, IL-5, IL-6, IL-7, IL-8/CXCL8, IP-10/CXCL10, RANTES/CCL5, TNFα, TNFβ. Multiplex-based assay read-out was performed using the MAGPIX system (Merck) with the xPONENT 4.2 software (Merck, Darmstadt, Germany) in accordance with the manufacturer’s instruction with overnight incubation of the samples with primary antibodies. […]"}, "[3]": {"tested_on": "P. aeruginosa ATCC 27853", "assay": "Antimicrobial assay (MIC)", "type": "cell-based, Pseudomonas aeruginosa", "conditions": "Mueller-Hinton broth supplemented with 0.9% NaCl", "procedure": "(§1) The reduction of resazurin to resorufin was measured."}, "[4]": {"tested_on": "P. aeruginosa PAO1", "assay": "Antimicrobial assay (MIC)", "type": "cell-based, Pseudomonas aeruginosa", "conditions": "Mueller-Hinton broth supplemented with 0.9% NaCl", "procedure": "as §1"}, "[5]": {"tested_on": "E. coli CI 214", "assay": "Antimicrobial assay (MIC)", "type": "cell-based, Escherichia coli", "conditions": "Mueller-Hinton broth supplemented with 0.9% NaCl", "procedure": "as §1"}, "[6]": {"tested_on": "E. coli ML-35p", "assay": "Antimicrobial assay (MIC)", "type": "cell-based, Escherichia coli", "conditions": "Mueller-Hinton broth supplemented with 0.9% NaCl", "procedure": "as §1"}, "[7]": {"tested_on": "E. coli ML-35p cytoplasmic membrane", "assay": "Cytoplasmic membrane permeabilization (ONPG hydrolysis)", "type": "cell-based, Escherichia coli", "procedure": "To examine the ability of the peptides to affect the barrier function of the cytoplasmic bacterial membrane, we slightly modified the previously described procedure with the use of the E. coli ML-35p strain constitutively expressing cytoplasmic β-galactosidase but lacking lactose permease. The state of the E. coli ML-35p inner membrane was assessed based on its permeability to chromogenic marker o-nitrophenyl-β-D-galactopyranoside (ONPG, AppliChem, Darmstadt, Germany), which is the β-galactosidase substrate. The cells were incubated in the trypticase soy broth (TSB) for 16 h at 37 °C, washed three times with phosphate-buffered saline (PBS, pH 7.4) to remove residual growth media, adjusted to the concentration of 2.5 × 10^8 CFU/mL, and stored on ice until used. The assay was performed in PBS as well. The final concentration of E. coli ML-35p cells was 2.5 × 10^7 CFU/mL. The concentration of ONPG was 2.5 mM. Peptide samples were placed in the wells of a 96-well plate with a non-binding surface (NBS, Corning #3641), and the optical density (OD) of the solution rose due to the appearance of o-nitrophenol was measured at 405 nm using a microplate reader AF2200 (Eppendorf, Hamburg, Germany). The final volume in each well was 200 µL. Assays were performed at 37 °C under stirring at 500 rpm. Control experiments were performed under the same conditions without adding a peptide. Two independent experiments were performed, and the curve pattern was similar."}}, "note": "Where a SMILES comes first, the peptide text is derived from it.", "data": [{"smiles": "CC[C@H](C)[C@H](NC(=O)[C@H](CCCNC(=N)N)NC(=O)[C@@H](N)CCCNC(=N)N)C(=O)N[C@@H](CCCNC(=N)N)C(=O)N[C@@H](CCCNC(=N)N)C(=O)N1CCC[C@H]1C(=O)N[C@@H](CCCNC(=N)N)C(=O)N[C@@H](CC(C)C)C(=O)N1CCC[C@H]1C(=O)N[C@@H](CCCNC(=N)N)C(=O)N1CCC[C@H]1C(=O)N[C@@H](CCCNC(=N)N)C(=O)N[C@H](C(=O)N1CCC[C@H]1C(=O)N[C@@H](CCCNC(=N)N)C(=O)N1CCC[C@H]1C(=O)N[C@@H](CCCNC(=N)N)C(=O)N[C@H](C(=O)N1CCC[C@H]1C(=O)N1CCC[C@H]1C(=O)N[C@@H](CCCNC(=N)N)C(=O)N[C@H](C(=O)N1CCC[C@H]1C(=O)N[C@@H](CCCNC(=N)N)C(=O)N1CCC[C@H]1C(=O)N[C@H](C(=O)N[C@@H](CC(C)C)C(=O)N1CCC[C@H]1C(=O)N1CCC[C@H]1C(=O)N1CCC[C@H]1C(=O)N[C@@H](CCCNC(=N)N)C(=O)N[C@H](C(=O)N1CCC[C@H]1C(=O)N[C@@H](Cc1ccccc1)C(=O)N1CCC[C@H]1C(=O)N[C@@H](CCCNC(=N)N)C(=O)N[C@@H](Cc1ccccc1)C(=O)N1CCC[C@H]1C(=O)N[C@@H](CCCNC(=N)N)C(N)=O)C(C)C)C(C)C)[C@@H](C)CC)[C@@H](C)CC)C(C)C", "note": "[VicBac[1-39]] (H-RRIRRPRLPRPRVPRPRIPPRIPRPVLPPPRVPFPRFPR-NH2; N-terminus assumed)", "values": [{"measurement": "IC50", "setting": "[1]", "result": 500, "unit": "nM"}, {"measurement": "Production of IL-8/CXCL8", "setting": "[2]", "result": 1034, "unit": "pg/mL"}, {"measurement": "MIC, P. aeruginosa ATCC 27853", "setting": "[3]", "result": 4, "unit": "µM"}, {"measurement": "MIC, P. aeruginosa PAO1", "setting": "[4]", "result": 8, "unit": "µM"}, {"measurement": "MIC, E. coli CI 214", "setting": "[5]", "result": 8, "unit": "µM"}, {"measurement": "MIC, E. coli ML-35p", "setting": "[6]", "result": 0.5, "unit": "µM"}, {"measurement": "membrane damage effect at concentrations near the MIC value", "setting": "[7]; E. coli ML-35p, ONPG, near MIC 0.5 µM", "result": "negligible membrane damage effect"}, {"measurement": "effect on E. coli ML-35p cytoplasmic membrane permeability for ONPG", "setting": "[7]; PBS, 37 °C, OD405, 2.5 mM ONPG, two independent experiments", "result": "quite moderate effect"}]}]}
